The values below come from patent publication US11078496B2, “System for F-box hormone receptor regulated protein expression in mammalian cells” (ICAHN SCHOOL OF MEDICINE AT MOUNT SINAI, priority 2016, dated 2021).

The assay concerns A-CHK1 mESCs. As to the kind of experiment: Aphidicolin sensitivity of A-CHK1 mESCs (crystal violet staining). In kind it is cell-based, mouse. The protocol:
FIG. 5A is a western blot analysis depicting endogenous CHK1 (*) and AID^47-CHK1 (A-CHK1, **) in four selected clones and in parental non-infected mESCs. […] serves as a loading control. Experiment was repeated three times for clones #1 and #2, and a representative blot is presented. In FIG. 5B, A-CHK1 #2 mESCs were treated with ethanol (“Con”) or auxin (“IAA”) for 1 day. Cells were then treated with the indicated concentrations of aphidicolin (“Aph”). Equal concentrations of DMSO were applied to all conditions. The next day, cells were stained with crystal violet and plates were scanned. […] In FIG. 5C, mESC clones were pretreated with […] aphidicolin for 1 day and were then treated with auxin for the indicated time periods. Left panel: mitotic index was calculated as the percentage of H3^pS10-positive cells with 4N DNA content, measured by flow cytometry. […] Tyr15 phosphorylation of CDK1 (“CDKlpY^15”) was detected using a phospho-specific antibody. β-Actin serves as a loading control. […]
CCE mESCs were infected with pRAIDRS A-CHK1 or GFP-A. Selected clones were analyzed for their CHK1-dependent response to aphidicolin treatment. […] Cells were then treated with 1 μM 5 aphidicolin (“Aph”) or 0.001% DMSO for 12 hours and analyzed for DNA content using propidium iodide (“PI”). […] Apoptotic index was calculated as the percentage of Annexin V-positive, 7-AAD-negative cells. […]

In the case of `C[C@@]1(CO)[C@H](O)CC[C@@]2(C)[C@H]1CC[C@H]1C[C@@H]3C[C@@]12CC[C@]3(O)CO` [aphidicolin, Aphidicolin], the “aphidicolin concentration after which cells died” value (auxin-treated (CHK1-depleted) A-CHK1 mESCs) is 0.1 mM. Further, the “fold higher aphidicolin concentration at which control cells survived” value (control-treated A-CHK1 cells versus auxin-treated cells) is 100 fold.
